The record followed here is ChEMBL document CHEMBL5344478, “Cytochrome bd oxidase: an emerging anti-tubercular drug target” (RSC Med Chem, 2024).

Test [1] is described as follows: Inhibition of Mycobacterium bovis BCG cytochrome bd oxidase with ATP synthase overexpression inverted membrane vesicles. It is filed as cell membranes, Mycobacterium tuberculosis variant bovis, Membrane vesicle.
Test [2] in a line: Inhibition of wild type Mycobacterium bovis BCG cytochrome bd oxidase assessed as inhibition of oxygen consumption rate measured after 5 days by Methylene blue dye based assay. Also noted: species or system Mycobacterium tuberculosis variant bovis.

As for `c1ccc(CCNc2ncnc3ccccc23)cc1`, in test [1], 11 µM corresponded to half-maximal inhibition (IC50).
In the case of `FC(F)(F)c1ccc(Oc2ccc(Nc3ncnc4ccccc34)cc2)cc1`, the IC50 in test [2] came out at 0.8 µM; in test [1], 0.5 µM.
Turning to `CCc1nc2ccc(Cl)cn2c1C(=O)NCc1ccc(N2CCC(c3ccc(OC(F)(F)F)cc3)CC2)cc1` [TELACEBEC], the IC50 in test [1] was determined as 6.2 µM.
On the same count and under the same terms, the value for `NC(=O)NC(=O)c1nc(-c2cc3ccccc3o2)c(N)nc1N` was 21.2 µM.
